The record followed here is patent EP4692114A1, “CALCITONIN ANALOGUE, AND DERIVATIVE THEREOF AND USE THEREOF” (Hangzhou Sciwind Biosciences Co., Ltd., priority 2023, dated 2024).

Data set [1] in a line: Study of weight change and food consumption in rats. To be noted: SD rats, subcutaneous, 10 nmol/kg; for Effect on reducing food intake: accumulated food intake recorded every 24 hours (FIGs. 7 and 9); for Effect on reducing body weight: recorded every 24 hours (FIGs. 6 and 8). The class given is in vivo, SD (Sprague Dawley) rats. An excerpt:
SD (Sprague Dawley) rats weighing 200-250 g were used for this study. The rats were received at least 10-14 days before the study began such that they could accommodate to the experimental environment. After arrival, they were exposed to a reversed light/dark cycle (i.e., lights switched off in daytime and on in nighttime) for two weeks and were individually housed for the first week so as to ensure high data accuracy and test sensitivity. Throughout the acclimation and experiment period, the rats had free access to food and water. 5-8 rats were assigned to each testing group for the derivatives and were subcutaneously administered the derivatives at a dose of 10 nmol/kg or a vehicle, and the dosing timepoint was recorded for each group. After dosing, the rats were put back into cages where they were housed and could have access to food and water. Food consumption and weight change of the rats were recorded online or manually every 24 hours.

The target of another data set is T1, human amylin receptors (Homo sapiens, UniProt O60896+P30988).
T1 sequence (P30988 25-474): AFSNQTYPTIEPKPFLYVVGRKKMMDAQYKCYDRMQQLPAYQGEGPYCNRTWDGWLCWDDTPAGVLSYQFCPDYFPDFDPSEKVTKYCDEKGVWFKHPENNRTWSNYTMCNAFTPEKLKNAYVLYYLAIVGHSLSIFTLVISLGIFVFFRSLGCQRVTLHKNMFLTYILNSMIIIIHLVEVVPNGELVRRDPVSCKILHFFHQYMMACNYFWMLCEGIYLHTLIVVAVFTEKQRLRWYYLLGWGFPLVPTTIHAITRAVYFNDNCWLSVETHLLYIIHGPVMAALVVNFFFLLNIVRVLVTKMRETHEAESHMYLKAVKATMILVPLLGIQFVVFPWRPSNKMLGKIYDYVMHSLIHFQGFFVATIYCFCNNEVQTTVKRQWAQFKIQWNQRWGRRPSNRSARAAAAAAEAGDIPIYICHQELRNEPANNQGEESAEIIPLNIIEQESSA
T1 sequence (O60896 24-148 partner): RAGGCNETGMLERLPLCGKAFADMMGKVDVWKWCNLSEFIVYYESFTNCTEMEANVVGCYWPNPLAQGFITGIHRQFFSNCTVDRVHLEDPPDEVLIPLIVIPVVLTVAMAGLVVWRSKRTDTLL
As to the kind of experiment: Luciferase assay of amylin (amylin receptor/CRE-luc cell line).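 Note: agonist potency from luminescence of cAMP response element-driven luciferase, EC50 derived from a standard curve of signal versus compound concentration.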 The class given is cell-based. The note with it: stably transfected amylin receptor/CRE-luc CHO cells (CHO-K1/Gal5/AMY3), 24 hours incubation, luciferase readout.

Data set [2] in a line: Heat accelerated stability assay under a neutral condition. The note with it: pH about 7.4, 40°C; for Concentration change (7d-0d)/%: Day 7 vs Day 0, reversed phase chromatography; for Purity Change% (7d-0d) / Purity Change% (26d-0d): purity from reversed phase chromatography-214 nm; for Purity Change% (7d-0d): Day 7 vs Day 0; for Purity Change% (26d-0d): Day 26 vs Day 0. The class given is physicochemical. Put shortly:
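Peptide (1 mg/mL) with sodium dihydrogen phosphate (1.42 mg/mL) in water, pH ~7.4, was sterile-filtered and stored at 40 °C, sampled on days 7 and 26. After centrifugation, concentration and purity (target/total peak area) were measured by reversed-phase HPLC at 214 and 280 nm, water/0.05% TFA to acetonitrile gradient, 25 °C column.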

*1 amine or outer side, *2 acyl side, *3 side chain or, on linkers, in order; H or OH if unused. Where a SMILES comes first, the peptide text is derived from it. The star is where a group is joined. C20 diacid = O=C(O)CCCCCCCCCCCCCCCCCCC(=O)*; C18 diacid = O=C(O)CCCCCCCCCCCCCCCCC(=O)*; γGlu = O=C(O)[C@H](CCC(=O)[*:2])N[*:1]; βAsp = O=C(O)[C@H](CC(=O)[*:2])N[*:1]

In the case of `CC(C)C[C@H](NC(=O)[C@H](CCCNC(=N)N)NC(=O)CNC(=O)[C@H](CC(C)C)NC(=O)[C@@H](NC(=O)[C@H](C)NC(=O)[C@@H](NC(=O)[C@H](CO)NC(=O)[C@H](CC(C)C)NC(=O)[C@H](CCC(N)=O)NC(=O)[C@H](CO)NC(=O)[C@H](C)NC(=O)CC[C@H](NC(=O)CCCCCCCCCCCCCCCCCCC(=O)O)C(=O)O)[C@@H](C)O)C(C)C)C(=O)N[C@@H](CO)C(=O)N[C@@H](CCC(=O)O)C(=O)N[C@@H](CCC(=O)O)C(=O)N[C@@H](CC(C)C)C(=O)N[C@@H](Cc1c[nH]cn1)C(=O)N[C@@H](CCCNC(=N)N)C(=O)N[C@@H](CC(C)C)C(=O)N[C@@H](CCC(N)=O)C(=O)N[C@@H](CC(=O)O)C(=O)N[C@@H](Cc1ccc(O)cc1)C(=O)N1CCC[C@H]1C(=O)N[C@@H](CCCNC(=N)N)C(=O)N[C@H](C(=O)N[C@@H](CC(=O)O)C(=O)N[C@H](C(=O)NCC(=O)N[C@@H](CO)C(=O)NCC(=O)N[C@@H](CO)C(=O)N1CCC[C@H]1C(N)=O)C(C)C)[C@@H](C)O` [M9] ({C20 diacid-γGlu}-ASQLSTAVLGRLSEELHRLQDYPRTDVGSGSP-NH2), in data set [1], the “Effect on reducing food intake” value was “particularly effective” and the “Effect on reducing body weight” value is given as “particularly effective”. For the same compound, the EC50 at human amylin receptors is 0.017 nM. In addition, in data set [2] (1 mg/mL, phosphate), the “Changes in characteristics or properties, 0d” value (from here on “Changes … 0d”) is “Clear” and the “Changes in characteristics or properties, 7d” value (“Changes … 7d” for short) was “Clear”. In data set [2] (1 mg/mL, phosphate, Day 26), the “Characteristics or properties on Day 26” value is reported as “clear solution”. In data set [2], the “Concentration change (7d-0d)/%” value is “No change (a decrease of less than 1% from the initial value to the detected content is denoted as "no change")” and the “Purity Change% (7d-0d)” value is reported as “No change (a decrease of less than 1% from the initial value to the detected content is denoted as "no change")”.

In the case of `CC(C)C[C@H](NC(=O)[C@H](CCCNC(=N)N)NC(=O)CNC(=O)[C@H](CC(C)C)NC(=O)[C@@H](NC(=O)[C@H](C)NC(=O)[C@@H](NC(=O)[C@H](CO)NC(=O)[C@H](CC(C)C)NC(=O)[C@H](CCC(N)=O)NC(=O)[C@H](CO)NC(=O)[C@H](C)NC(=O)CC[C@H](NC(=O)CCCCCCCCCCCCCCCCCCC(=O)O)C(=O)O)[C@@H](C)O)C(C)C)C(=O)N[C@@H](CO)C(=O)N[C@@H](CCC(N)=O)C(=O)N[C@@H](CCC(=O)O)C(=O)N[C@@H](CC(C)C)C(=O)N[C@@H](Cc1c[nH]cn1)C(=O)N[C@@H](CCCNC(=N)N)C(=O)N[C@@H](CC(C)C)C(=O)N[C@@H](CCC(N)=O)C(=O)N[C@@H](CC(=O)O)C(=O)N[C@@H](CC(C)C)C(=O)N1CCC[C@H]1C(=O)N[C@@H](CCCNC(=N)N)C(=O)N[C@H](C(=O)N[C@@H](CC(=O)O)C(=O)N[C@H](C(=O)NCC(=O)N[C@@H](CO)C(=O)NCC(=O)N[C@@H](CO)C(=O)N1CCC[C@H]1C(N)=O)C(C)C)[C@@H](C)O` [M18] ({C20 diacid-γGlu}-ASQLSTAVLGRLSQELHRLQDLPRTDVGSGSP-NH2), in data set [1], the “Effect on reducing food intake” value is on record as “particularly effective” and the “Effect on reducing body weight” value is “particularly effective”.

For the compound `CC(C)C[C@H](NC(=O)[C@H](CCCNC(=N)N)NC(=O)CNC(=O)[C@H](CC(C)C)NC(=O)[C@@H](NC(=O)[C@H](C)NC(=O)[C@@H](NC(=O)[C@H](CO)NC(=O)[C@H](CC(C)C)NC(=O)[C@H](CCC(N)=O)NC(=O)[C@H](CO)NC(=O)[C@H](C)NC(=O)CC[C@H](NC(=O)CCCCCCCCCCCCCCCCCCC(=O)O)C(=O)O)[C@@H](C)O)C(C)C)C(=O)N[C@@H](CO)C(=O)N[C@@H](CCC(N)=O)C(=O)N[C@@H](CCC(=O)O)C(=O)N[C@@H](CC(C)C)C(=O)N[C@@H](Cc1c[nH]cn1)C(=O)N[C@@H](CCCNC(=N)N)C(=O)N[C@@H](CC(C)C)C(=O)N[C@@H](CCC(N)=O)C(=O)N[C@@H](CC(=O)O)C(=O)N[C@@H](Cc1ccc(O)cc1)C(=O)N1CCC[C@H]1C(=O)N[C@@H](CCCNC(=N)N)C(=O)N[C@H](C(=O)N[C@@H](CC(=O)O)C(=O)N[C@H](C(=O)NCC(=O)N[C@@H](C)C(=O)N[C@@H](CCC(=O)O)C(=O)N[C@@H](CO)C(=O)N1CCC[C@H]1C(N)=O)C(C)C)[C@@H](C)O` [M20] ({C20 diacid-γGlu}-ASQLSTAVLGRLSQELHRLQDYPRTDVGAESP-NH2), in data set [1], the “Effect on reducing food intake” value is “prominent effect” and the “Effect on reducing body weight” value is listed as “prominent effect”. On human amylin receptors, the EC50 turned out to be 0.017 nM.

On human amylin receptors, `CC(C)C[C@H](NC(=O)[C@H](CCCNC(=N)N)NC(=O)CNC(=O)[C@H](CC(C)C)NC(=O)[C@@H](NC(=O)[C@H](C)NC(=O)[C@@H](NC(=O)[C@H](CO)NC(=O)[C@H](CC(C)C)NC(=O)[C@H](CCC(N)=O)NC(=O)[C@H](CO)NC(=O)[C@H](C)NC(=O)C[C@H](NC(=O)CCCCCCCCCCCCCCCCCCC(=O)O)C(=O)O)[C@@H](C)O)C(C)C)C(=O)N[C@@H](CO)C(=O)N[C@@H](CC(=O)O)C(=O)N[C@@H](CCC(=O)O)C(=O)N[C@@H](CC(C)C)C(=O)N[C@@H](Cc1c[nH]cn1)C(=O)N[C@@H](CCCNC(=N)N)C(=O)N[C@@H](CC(C)C)C(=O)N[C@@H](CCC(N)=O)C(=O)N[C@@H](CC(=O)O)C(=O)N[C@@H](Cc1ccc(O)cc1)C(=O)N1CCC[C@H]1C(=O)N[C@@H](CCCNC(=N)N)C(=O)N[C@H](C(=O)N[C@@H](CC(=O)O)C(=O)N[C@H](C(=O)NCC(=O)N[C@@H](CO)C(=O)NCC(=O)N[C@@H](CO)C(=O)N1CCC[C@H]1C(N)=O)C(C)C)[C@@H](C)O` [M43] ({C20 diacid-βAsp}-ASQLSTAVLGRLSDELHRLQDYPRTDVGSGSP-NH2) returned an EC50 of 0.017 nM. In data set [2] (1 mg/mL, phosphate), the “Changes … 0d” value is given as “Clear” and the “Changes … 7d” value is listed as “Clear”. In data set [2], the “Concentration change (7d-0d)/%” value is reported as “No change (a decrease of less than 1% from the initial value to the detected content is denoted as "no change")”, the “Purity Change% (7d-0d)” value was “No change (a decrease of less than 1% from the initial value to the detected content is denoted as "no change")” and the “Purity Change% (26d-0d)” value is on record as -1.96%.

`CC(C)C[C@H](NC(=O)[C@H](CCCNC(=N)N)NC(=O)CNC(=O)[C@H](CC(C)C)NC(=O)[C@@H](NC(=O)[C@H](C)NC(=O)[C@@H](NC(=O)[C@H](CO)NC(=O)[C@H](CC(C)C)NC(=O)[C@H](CCC(N)=O)NC(=O)[C@H](CO)NC(=O)[C@H](C)NC(=O)[C@H](CC(=O)O)NC(=O)CCCCCCCCCCCCCCCCC(=O)O)[C@@H](C)O)C(C)C)C(=O)N[C@@H](CO)C(=O)N[C@@H](CC(=O)O)C(=O)N[C@@H](CCC(=O)O)C(=O)N[C@@H](CC(C)C)C(=O)N[C@@H](Cc1c[nH]cn1)C(=O)N[C@@H](CCCNC(=N)N)C(=O)N[C@@H](CC(C)C)C(=O)N[C@@H](CCC(N)=O)C(=O)N[C@@H](CC(=O)O)C(=O)N[C@@H](Cc1ccc(O)cc1)C(=O)N1CCC[C@H]1C(=O)N[C@@H](CCCNC(=N)N)C(=O)N[C@H](C(=O)N[C@@H](CC(=O)O)C(=O)N[C@H](C(=O)NCC(=O)N[C@@H](CO)C(=O)NCC(=O)N[C@@H](CO)C(=O)N1CCC[C@H]1C(N)=O)C(C)C)[C@@H](C)O` [M44] ({C18 diacid}-DASQLSTAVLGRLSDELHRLQDYPRTDVGSGSP-NH2): at human amylin receptors, the EC50 is 0.016 nM. For the same compound, in data set [2] (1 mg/mL, phosphate), the “Changes … 0d” value is listed as “Clear” and the “Changes … 7d” value was “Clear”. Besides, in data set [2], the “Concentration change (7d-0d)/%” value is listed as -2.285%, the “Purity Change% (7d-0d)” value is reported as -1.15% and the “Purity Change% (26d-0d)” value was -3.76%.
